Common to all, as to type: cell-based
In experiment [1] the test system is Human non-small cell lung cancer cell line A549. Put plainly: inhibitory effect in human pulmonary fibrosis cell model (TGFβ1-stimulated), qPCR of fibrosis gene mRNA. The settings on record: for therapeutic effect on pulmonary fibrosis: overall conclusion from the A549 cell model; for difference from the positive drug Nintedanib group: pulmonary fibrosis cells, Nintedanib 2µmol. On the procedure: (§1) In embodiments, the method for detecting the inhibitory effect of micropeptide OFMP in a fibrotic cell model by the real-time fluorescence quantitative PCR method comprises: • counting and inoculating human hepatic stellate cells LX-2, human non-small cell lung cancer cell line A549, and human renal proximal tubular cells HK2 to culture plates; • except for the control group, adding 10nmol of recombinant human TGFβ1 stimulating factor to stimulate continuously for 24 h; • extracting and collecting the total RNA of the cell samples with a TRIzol reagent, and then reverse-transcribing the extracted total RNA using a reverse transcription reagent, and performing qPCR reaction using the qPCR premix solution; and • detecting mRNA expression levels of genes Colla1 and α-SMA using a real-time fluorescence quantitative PCR instrument.
(§2) According to the TRIzol reagent manual of Life Invitrogen, the total RNA of the cell samples was extracted and collected. Then, the purity and concentration of the extracted RNA was quantified by a NanoDrop 2000 ultra micro spectrophotometer. The integrity of the extracted RNA was inspected and ensured by agarose gel electrophoresis. A reverse transcription reagent HiScript® III RT SuperMix for qPCR (+ genomic DNA wiper) was used to perform reverse transcription on the extracted total RNA and a qPCR premix liquid ChamQ SYBR qPCR Master Mix was used to perform qPCR reaction.
(§3) After the above components were mixed well, the following procedure proceeded: initial denaturation 95°C 30s, 95°C 10s, 60°C 30s, 50 cycles. After the qPCR reaction was completed, the Cq value of each sample well was collected. The maximum error of the Cq values among the three duplicate wells of each sample should be no more than 0.5 to ensure data accuracy.
(§4) Human non-small cell lung cancer cell line A549 was cultured in a 37°C 5% CO2 cell incubator until the cell density was above 80%, and the cells were digested and collected by trypsin, and centrifuged. After the supernatant was discarded, the cells were counted by a cell counter, inoculated to six-well cell culture plates, and put into a 37°C 5% CO2 cell incubator to continue the culturing. The culture medium was sucked out after the cells were cultured for 24 h, a 2‰ DMSO solvent was added as a negative control, 2µmol of Nintedanib was added as a positive control, 40µmol, 10µmol, 2.5µmol, 625nmol and 156nmol of the synthetic peptide OFMP were added in the equal proportion for other groups as administration groups, 10nmol of recombinant human TGFβ1 stimulating factor was added to other groups except the control groups half an hour later to continuously stimulate for 24 h, and the mRNA expression levels of genes Colla1, TGFβ1 and CTGF in OFMP3178, and the mRNA expression levels of genes Colla1 and α-SMA in OFMP2067 and OFMP1080 were detected.

Experiment [2] has as its system Human renal proximal tubular cells HK2. Put plainly: inhibitory effect in human renal fibrosis cell model (TGFβ1-stimulated), qPCR of fibrosis gene mRNA. The settings on record: for therapeutic effect on renal fibrosis: overall conclusion from the HK2 cell model; for difference from the positive drug hydronidone group: renal fibrosis cells, hydronidone 20µmol. On the procedure:
as §1, §2, §3
as §4, with “renal proximal tubular cells HK2 were” for “non-small cell lung cancer cell line A549 was”, “20µmol” for “2µmol”, “hydronidone” for “Nintedanib”
(In qPCR the cycle at which signal appears reflects the starting amount.)

The subject of experiment [3] is human hepatic stellate cells LX-2. Put plainly: inhibitory effect in human liver fibrosis cell model (TGFβ1-stimulated), qPCR of fibrosis gene mRNA. The conditions noted are these: for difference from the positive drug hydronidone group: liver fibrosis cells, hydronidone 20µmol; for therapeutic effect on liver fibrosis: overall conclusion from the LX-2 cell model. The procedure:
as §1, §2, §3
as §4, with “Human hepatic stellate cells LX-2, human” for “Human”, “A549, and human renal proximal tubular cells HK2 were” for “A549 was”, “20µmol” for “2µmol”, “hydronidone” for “Nintedanib”

Setting [4] is: different concentrations (40µmol to 156nmol), 10nmol TGFβ1, 24 h, compared with the model group.

For the substance “OFMP1080 (MRHRLVSLSVTSCVTPAAGTRRGSAGAVGTNTGRGGPPPHALRASGEQSPAQGVS)”, the “mRNA expression level of gene Colla1 in pulmonary fibrosis cells” value in experiment [1] (setting [4]) is “significantly decreased”; in experiment [1] (treatment condition 10µmol-24h) it was “most significant decrease”. The “therapeutic effect on pulmonary fibrosis” value in experiment [1] is listed as “good therapeutic effect”. Also, the “mRNA expression level of gene Colla1 in renal fibrosis cells” value in experiment [2] (setting [4]) is reported as “significantly decreased”; in experiment [2] (treatment condition 40µmol-24h) it was “most significant decrease”. Also, the “therapeutic effect on renal fibrosis” value in experiment [2] is on record as “good therapeutic effect”. Besides, the “mRNA expression level of gene Colla1 in liver fibrosis cells” value in experiment [3] (setting [4]) is given as “significantly decreased”; in experiment [3] (treatment condition 40µmol-24h), “most significant decrease”. Also, the “difference from the positive drug hydronidone group” value in experiment [3] was “not a significant difference”. The “therapeutic effect on liver fibrosis” value in experiment [3] is reported as “good therapeutic effect”. Also, the “mRNA expression level of gene α-SMA in liver fibrosis cells” value in experiment [3] (treatment condition 40µmol-24h) was “most significant decrease”.
On to “OFMP2067 (MHLDHSDPITRDHMGSVMAQVRQKLFQFLQAEPHNSLGKAARRLSLMLHGLVTPSLP)”, for which, in experiment [1] (setting [4]), the “mRNA expression level of gene Colla1 in pulmonary fibrosis cells” value is on record as “significantly decreased” and the “mRNA expression level of gene α-SMA in pulmonary fibrosis cells” value is listed as “significantly decreased”. Besides, in experiment [1], the “therapeutic effect on pulmonary fibrosis” value is “good therapeutic effect” and the “difference from the positive drug Nintedanib group” value was “a significant difference”. For the same substance, in experiment [1] (treatment condition 40µmol-24h), the “mRNA expression level of gene Colla1 in pulmonary fibrosis cells” value was “most significant decrease” and the “mRNA expression level of gene α-SMA in pulmonary fibrosis cells” value is on record as “most significant decrease”. In experiment [2] (setting [4]), the “mRNA expression level of gene Colla1 in renal fibrosis cells” value is reported as “significantly decreased” and the “mRNA expression level of gene α-SMA in renal fibrosis cells” value is recorded as “significantly decreased”. For the same substance, in experiment [2], the “therapeutic effect on renal fibrosis” value was “good therapeutic effect” and the “difference from the positive drug hydronidone group” value is listed as “a significant difference”. Besides, in experiment [2] (treatment condition 40µmol-24h), the “mRNA expression level of gene Colla1 in renal fibrosis cells” value was “most significant decrease” and the “mRNA expression level of gene α-SMA in renal fibrosis cells” value is “most significant decrease”. Moreover, in experiment [3] (setting [4]), the “mRNA expression level of gene Colla1 in liver fibrosis cells” value is reported as “significantly decreased” and the “mRNA expression level of gene α-SMA in liver fibrosis cells” value was “significantly decreased”. Further, in experiment [3], the “difference from the positive drug hydronidone group” value is on record as “a significant difference” and the “therapeutic effect on liver fibrosis” value is “good therapeutic effect”. Further, in experiment [3] (treatment condition 40µmol-24h), the “mRNA expression level of gene Colla1 in liver fibrosis cells” value is listed as “most significant decrease” and the “mRNA expression level of gene α-SMA in liver fibrosis cells” value is listed as “most significant decrease”.
For “OFMP3178 (MSLSICTLCLLPRRQEYCILKVPGLLFFLITNDLGSSDHSCLPRVKVPFKALLPGEL)”, in experiment [1] (setting [4]), the “mRNA expression level of gene CTGF in pulmonary fibrosis cells” value is recorded as “significantly decreased”, the “mRNA expression level of gene Colla1 in pulmonary fibrosis cells” value is reported as “significantly decreased” and the “mRNA expression level of gene TGFβ1 in pulmonary fibrosis cells” value is given as “significantly decreased”. Moreover, in experiment [1], the “therapeutic effect on pulmonary fibrosis” value is “good therapeutic effect” and the “difference from the positive drug Nintedanib group” value is given as “a significant difference”. Moreover, in experiment [1] (treatment condition 40µmol-24h), the “mRNA expression level of gene CTGF in pulmonary fibrosis cells” value is given as “most significant decrease”, the “mRNA expression level of gene Colla1 in pulmonary fibrosis cells” value is reported as “most significant decrease” and the “mRNA expression level of gene TGFβ1 in pulmonary fibrosis cells” value is listed as “most significant decrease”. In experiment [2] (setting [4]), the “mRNA expression level of gene CTGF in renal fibrosis cells” value is “significantly decreased”, the “mRNA expression level of gene Colla1 in renal fibrosis cells” value was “significantly decreased” and the “mRNA expression level of gene TGFβ1 in renal fibrosis cells” value is “significantly decreased”. In addition, in experiment [2], the “therapeutic effect on renal fibrosis” value is reported as “good therapeutic effect” and the “difference from the positive drug hydronidone group” value is given as “a significant difference”. Besides, in experiment [2] (treatment condition 40µmol-24h), the “mRNA expression level of gene CTGF in renal fibrosis cells” value was “most significant decrease”, the “mRNA expression level of gene Colla1 in renal fibrosis cells” value is reported as “most significant decrease” and the “mRNA expression level of gene TGFβ1 in renal fibrosis cells” value is listed as “most significant decrease”. Moreover, in experiment [3] (setting [4]), the “mRNA expression level of gene CTGF in liver fibrosis cells” value is reported as “significantly decreased” and the “mRNA expression level of gene Colla1 in liver fibrosis cells” value is reported as “significantly decreased”. For the same substance, in experiment [3], the “difference from the positive drug hydronidone group” value is on record as “a significant difference” and the “therapeutic effect on liver fibrosis” value is “good therapeutic effect”. Further, in experiment [3] (treatment condition 40µmol-24h), the “mRNA expression level of gene CTGF in liver fibrosis cells” value is listed as “most significant decrease” and the “mRNA expression level of gene Colla1 in liver fibrosis cells” value is recorded as “most significant decrease”.

Source of the values: patent EP4793281A1, “ORGAN FIBROSIS-RELATED MICROPEPTIDE (OFMP) AND USE THEREOF” (Nanjing Anji Biological Technology Co., Ltd., priority 2023, dated 2025).
